pIC50: −log10 of the molar value. Where two headings read alike, the source gives them in different places.
Key:
Type in all cases: cell-based, human
[1] = test system: MIA PaCa-2 cells with Kras G12C mutation; experiment: Cell proliferation inhibition experiment, 3D spheroid, CellTiter-Glo (Test Example 3); settings: 5 days, read-out: MIA-PaCa2 IC50
Procedure: MIA PaCa-2 was a human pancreatic carcinoma cell line with Kras G12C mutation, which was cultured in a DMEM with 10% FBS and 2.5% Horse serum. A549 was a human lung adenocarcinoma cell line with Kras G12S mutation, which was cultured in an F-12K medium with 10% FBS. Cells in logarithmic growth phase were detached with trypsin and EDTA, collected and counted, and 200 MIA PaCa-2 cells and 400 A549 cells were seeded to 384-well spheroid plates, respectively, and cultured overnight to establish 3D cell models. 1000× stock solutions of compounds at a concentration gradient of 3.16 were prepared by using DMSO, and diluted 100 times by the medium into 10× stock solutions of compounds. On the day after cell seeding, 10× stock solution of a compound was added to each well of cell culture plate, with a final concentration being 1× and a DMSO content of 0.1%. DMSO was used as the control, and the medium was used as the blank. After 5 days of cell culture with the compound, 30 μl of CellTiter-Glo working solution was added to each well, and mixed uniformly and incubation for 30 minutes. After standing at room temperature for 30 minutes, 40 μl of mixed solution was transferred to a 384-well plate with white unclear bottom. A value of luminescence intensity was then read, and a cell proliferation inhibition rate (IR) (%)=(RLU control−RLU compound)/(RLU control−RLU blank)×100%. The value of IC50 was calculated by fitting a gradiently diluted concentration of the compound and the corresponding cell proliferation inhibition rate using an XLFit four-parameter method.

[2] = test system: A549 cells with Kras G12S mutation; experiment: Cell proliferation inhibition experiment, 3D spheroid, CellTiter-Glo (Test Example 1); settings: 5 days
Procedure: (§1) NCI-H358 was a human NSCLC cell line with Kras G12C mutation, which was cultured in a RPMI-1640 medium with 10% fetal bovine serum (FBS). A549 was a human lung adenocarcinoma cell line with Kras G12S mutation, which was cultured in an F-12K medium with 10% FBS. Cells in logarithmic growth phase were detached with trypsin and EDTA, collected and counted, and H358 was regulated to 1.8E4 cells/ml by using an RPMI-1640 medium with 2% FBS, while A549 was regulated to 8.9E3 cells/ml with an F-12K medium containing 2% FBS. 800 (45 μl) H358 cells and 400 (45 μl) A549 cells were seeded to 384-well spheroid plates, respectively, and cultured overnight to establish 3D cell models. 1000× stock solutions of compounds at a concentration gradient of 3.16 were prepared by using DMSO, and diluted 100 times by the medium with 2% FBS into 10× stock solutions of compounds. On the day after cell seeding, 5 μl of 10× stock solution of a compound was added to each well of cell culture plate, with a final concentration being 1× and a DMSO content of 0.1%. DMSO was used as the control, and the medium with 2% FBS was used as blank control group. After 5 days of cell culture with the compound, 25 μl of CellTiter-Glo working solution was added to each well, and mixed uniformly at 400 rpm and incubation for 30 minutes. After standing at room temperature for 30 minutes, 40 μl of mixed solution was transferred to a 384-well plate with white clear bottom. A value of luminescence was then read, and a cell proliferation inhibition rate (IR) (%)=(RLU control-RLU compound)/(RLU control−RLU blank)×100%. The value of IC50 was calculated by fitting a gradiently diluted concentration of the compound and the corresponding cell proliferation inhibition rate using a Prism 6 four-parameter method.

[3] = test system: NCI-H358 cells with Kras G12C mutation; experiment: as above; settings: 5 days
Procedure: as §1

[4] = test system: phosphorylated ERK in MIA PaCa2 cells with Kras G12C mutation; experiment: p-ERK HTRF assay for cells (Test Example 2); settings: MIA PaCa2 cells, 2 hours with compound, read-out: p-ERK IC50
Procedure: MIA PaCa2 was a human pancreatic carcinoma cell line with Kras G12C mutation, which was cultured in a DMEM with 10% FBS and 2.5% Horse serum. Cells in logarithmic growth phase were detached with trypsin and EDTA, collected and counted, and 2.5E4 cells were seeded to a 96-well cell culture plate and cultured overnight. 1000× stock solutions of compounds at a concentration gradient of 3.16 were prepared by using DMSO, and diluted 200 times by the medium into 5× stock solutions of compounds. On the day after cell seeding, 5× stock solution of a compound was added to each well of cell culture plate, with a final concentration being 1× and a DMSO content of 0.1%. DMSO was used as the control. The residual culture was removed after culturing for 2 hours with the compound. To each well, 50 ul of cell lysis buffer was added and mixed uniformly and incubation for 30 minutes. Subsequently, 16 ul of mixed solution was transferred to a 96-well plate with white unclear bottom, and 16 ul of cell lysis buffer was added to the blank control group. After the completion of transfer, 4 ul of p-ERK HTRF antibody mixture was added to each well, and a value of fluorescence intensity was read after incubation for 4 hours. The inhibition rate (IR) of the compound was calculated by the following equation: IR (%)=(RLU control-RLU compound)/(RLU control−RLU blank)×100%. The value of IC50 was calculated by fitting a gradiently diluted concentration of the compound and the corresponding cell proliferation inhibition rate using a Prism 8 four-parameter method.

[5] = Homo sapiens, MIA PaCa-2, 120 h

Compound	pIC50 [1, 5]	pIC50 ([2]; Homo sapiens, A549, 120 h)	pIC50 ([3]; Homo sapiens, NCI-H358, 120 h)	pIC50 [2]	pIC50 [3]	also measured
[2H]C([2H])([2H])N1C(=O)[C@H]2CN(C(=O)C=C)CCN2c2c1c(=O)n(-c1c(C(C)C)ncnc1C(C)C)c1c(F)c(-c3c(O)cccc3F)c(Cl)cc21 (atropisomer, axis not shown; (aR)) [Compound Z39-1, (4aR) -3-acryloyl-11-chloro-8-(4,6-diisopropylpyrimidin-5-yl)-9-fluoro-10-(2-fluoro-6-hydroxyphenyl)-6-(deuteromethyl-d3)-2,3,4,4a,6,8-hexahydro-1H-pyrazino[1′,2′,5]pyrazino[2,3-c]quinolin-5,7-dione]	9.00	–	–	< 4.52	9.22	pIC50 ([4]; Homo sapiens, MIA PaCa-2, 2 h): 7.96
C=CC(=O)N1CCN2c3c(c(=O)n(-c4c(C)ccnc4C(C)C)c4nc(-c5c(O)cccc5F)c(F)cc34)OC[C@H]2C1 (single isomer, unassigned) [Compound Z1-2]	–	4.78	–	–	6.70	–
C=CC(=O)N1CCN2c3c(c(=O)n(-c4c(C)ccnc4C(C)C)c4nc(-c5c(O)cccc5F)c(F)cc34)N(CC)C(=O)[C@H]2C1 (single isomer, unassigned) [Compound Z30-1]	–	–	–	< 4.52	6.09	–
C=CC(=O)N1CCN2c3c(c(=O)n(-c4c(C)ccnc4C(C)C)c4nc(-c5c(O)cccc5F)c(F)cc34)N(CC)C(=O)[C@H]2C1 (single isomer, unassigned) [Compound Z30-2]	–	–	–	< 4.52	7.33	pIC50 [1]: 6.89; pIC50 [4]: 6.31
C=CC(=O)N1C[C@@H]2C(=O)Nc3c(c4cc(F)c(-c5c(O)cccc5F)nc4n(-c4c(C)ccnc4C(C)C)c3=O)N2C[C@H]1C (single isomer, unassigned) [Compound Z35-1]	–	–	–	< 4.52	7.43	pIC50 [4]: 6.60
C=CC(=O)N1C[C@@H]2C(=O)Nc3c(c4cc(F)c(-c5c(O)cccc5F)nc4n(-c4c(C)ccnc4C(C)C)c3=O)N2C[C@H]1C (single isomer, unassigned) [Compound Z35-2]	–	–	–	< 4.52	8.22	pIC50 [4]: 7.31
C=CC(=O)N1CC2C(=O)N(C)c3c(c4cc(F)c(-c5c(O)cccc5F)nc4n(-c4c(C(F)(F)F)ccnc4C(C)C)c3=O)N2C[C@H]1C (single isomer, unassigned) [Compound Z49-1]	7.92	–	–	5.03	8.05	pIC50 ([4]; Homo sapiens, MIA PaCa-2, 2 h): 6.94
C=CC(=O)N1CC2C(=O)N(C)c3c(c4cc(F)c(-c5c(O)cccc5F)nc4n(-c4c(C(F)(F)F)ccnc4C(C)C)c3=O)N2C[C@H]1C (single isomer, unassigned) [Compound Z49-2]	–	–	–	< 4.52	7.36	–
C=CC(=O)N1CCN2c3c(cnc4c3CCN(c3c(C)ccc5[nH]ncc35)C4)OC[C@H]2C1 [Compound Z2, (R)-1-(3-(5-methyl-1H-indazol-4-yl)-1,2,3,4,8a,9,11,12-octahydropyrazino[1′,2′:4,5][1,4]oxazino[2,3-c][1,7]naphthyridin-10(8H)-yl)propyl-2-en-1-one]	–	–	–	< 5.00	6.11	–
C=CC(=O)N1CCN2c3c(c(=O)n(-c4c(C)ccnc4C(C)C)c4nc(-c5c(O)cccc5F)c(F)cc34)N(C)C(=O)[C@H]2C1 [Compound Z9, (4aR)-3-acryloyl-11-fluoro-10-(2-fluoro-6-hydroxyphenyl)-8-(2-isopropyl-4-methylpyridin-3-yl)-6-methyl-2,3,4,4a,6,8-hexahydro-1H-pyrazino[1′,2′:4,5]pyrazino[2,3-c][1,8,8]naphthyridin-5,7-dione]	7.13	–	7.49	–	–	pIC50 ([4]; Homo sapiens, MIA PaCa-2, 2 h): 6.73
C=CC(=O)N1CCN2c3c(c(=O)n(-c4c(C5CC5)ncnc4C4CC4)c4nc(-c5c(O)cccc5F)c(Cl)cc34)N(C)C(=O)[C@H]2C1 [Compound Z72]	–	–	–	–	–	pIC50 ([4]; Homo sapiens, MIA PaCa-2, 2 h): 6.97

The next lines start with results.

pIC50 [1, 5]	pIC50 ([2]; Homo sapiens, A549, 120 h)	pIC50 ([3]; Homo sapiens, NCI-H358, 120 h)	Compound	pIC50 [2]	pIC50 [3]	also measured
6.74	< 4.52	7.17	C=CC(=O)N1C[C@@H]2C(=O)N(C)c3c(c4cc(F)c(-c5c(O)cccc5F)nc4n(-c4nccnc4C(C)C)c3=O)N2C[C@H]1C [Compound Z22, (2R,4aR)-3-acryloyl-11-fluoro-10-(2-fluoro-6-hydroxyphenyl)-8-(3-isopropylpyrazin-2-yl)-2,6-dimethyl-2,3,4,4a,6,8-hexahydro-1H-pyrazino[1′,2′:4,5]pyrazino[2,3-c][1,8]naphthyridin-5,7-dione]	–	–	–
6.63	4.77	7.05	C=CC(=O)N1CCN2c3c(c(=O)n(-c4c(C)ccnc4C(C)C)c4nc(-c5c(O)cccc5F)c(F)cc34)OC[C@@H]2C1 [Compound Z28, (4aS)-3-acryloyl-11-fluoro-10-(2-fluoro-6-hydroxyphenyl)-8-(2-isopropyl-4-methylpyridin-3-yl)-1,2,3,4,4a,5-hexahydropyrazino[1′,2′:4,5][1,4]oxazino[2,3-c][1,8]naphthyridin-7(8H)-one]	–	–	–
–	4.66	6.78	C=CC(=O)N1CCN2c3c(c(=O)n(-c4c(C)ccnc4C(C)C)c4nc(-c5c(C)ccc6[nH]ncc56)c(F)cc34)OC[C@H]2C1 [Compound Z29, (4aR)-3-acryloyl-11-fluoro-8-(2-isopropyl-4-methylpyridin-3-yl)-10-(5-methyl-1H-indazol-4-yl)-1,2,3,4,4a,5-hexahydropyrazino[1′,2′:4,5][1,4]oxazino[2,3-c][1,8]naphthyridin-7(8H)-one]	–	–	–
6.77	< 4.52	7.19	C=CC(=O)N1CCN2c3c(c(=O)n(-c4c(C5CC5)ncnc4C4CC4)c4nc(-c5c(F)cccc5OC)c(F)cc34)N(C)C(=O)[C@H]2C1 [Compound Z32, (4aR)-3-acryloyl-11-fluoro-10-(2-fluoro-6-methoxyphenyl)-8-(4,6-bicyclopropylpyrimidin-5-yl)-6-methyl-2,3,4,4a,6,8-hexahydro-1H-pyrazino[1′,2′:4,5]pyrazino[2,3-c][1,8]naphthyridin-5,7-dione]	–	–	–
7.08	< 4.52	7.51	C=CC(=O)N1C[C@@H]2C(=O)N(C)c3c(c4cc(F)c(-c5c(O)cccc5F)nc4n(-c4c(C(C)C)nn(C)c4C)c3=O)N2C[C@H]1C [Compound Z47, (2R,4aR)-3-acryloyl-11-fluoro-10-(2-fluoro-6-hydroxyphenyl)-8-(3-isopropyl-1,5-dimethyl-1H-pyrazol-4-yl)-2,6-dimethyl-2,3,4,4a,6,8-hexahydro-1H-pyrazino[1′,2′:4,5]pyrazino[2,3-c][1,8]naphthyridin-5,7-dione]	–	–	–

Reference: patent US12054497B2, “Substituted heterocyclic fused cyclic compound, preparation method therefor and pharmaceutical use thereof” (GENFLEET THERAPEUTICS (SHANGHAI) INC., priority 2019, dated 2024)
